From patent US20060111284A1, “Method for treating cancer” (priority 2002, published 2006)

Key:
cells = test: Chemosensitizing by redox clamping agent co-administered with anti-cancer agent (FIG. 2); assay type: cell-based
From the text: The present invention further provides a method of reducing the effective dose of an anti-cancer agent necessary to be effective against cancer comprising administering a redox clamping agent in conjunction with an anti-cancer agent. It is preferred that the redox clamping agent is Mesna or DMSA. Redox clamping agents have the ability to maintain cells in a selected redox state. […] Redox clamping agents are useful in enhancing the therapeutic activity of chemotherapeutic agents such as butyrate that are dependent upon the redox state of the cell. Redox clamping agents are further useful in controlling hyperproliferation of cells and conditions associated with abnormal fluctuations in the redox state of cells. In one aspect, this invention provides a method of treating cancerous tumors comprising administering an effective dose of an anti-cancer agent in conjunction with a redox clamping agent, wherein the redox clamping agent acts as a chemoenhancer or a chemosensitizer. […] The administration of Mesna in conjunction with an anti-cancer agent may be as separate compounds or in a composition formulated and titrated to a dose and in a concentration that would achieve the optimal therapeutic dose of the anti-cancer agent providing a higher tumor cell kill with a lower dose of the anti-cancer agent than the typical therapeutic dose administered to a patient. […]

H4 Rat Hepatoma cells = test: Hydrogen peroxide stress in H4 Rat Hepatoma cells, antioxidant levels; assay type: cell-based; details: 100 uM hydrogen peroxide for two hours, medium replaced, determined after 24 hours
Experimental: To further exemplify the redox clamping properties of Mesna, stress was induced in H4 Rat Hepatoma cells by treatment with 100 uM hydrogen peroxide for two hours and then the medium was removed and replaced with an anti-cancer agent. The cellular viability, as well as glutathione and metallothionein levels were determined after 24 hours in culture. […] The inhibition of stress induced upswing in antioxidant levels is characteristic of redox clamping agents.
(§1) In all of the experiments associated with the investigation of Mesna as a redox clamping agent, as a stand-alone anticancer agent as well as a chemosensitizer, the cell culture medium used was Swim's S-77 medium containing 12 uM cystine, instead of conventional levels of this amino acid (i.e., 50 uM). All other components of the medium were maintained at conventional concentrations. […] The ability of cystine to supply cells with cysteine, which then function as a precursor amino acid for glutathione synthesis, is thought to be responsible for the abnormally high basal levels of glutathione in cultured tumor cell lines.

human tumor cell lines = test: Growth inhibition of human tumor cell lines in culture; assay type: cell-based
From the text: The present invention provides a method of treating lymphoma, ovarian cancer, colorectal cancer, or gastric cancer comprising administering an effective amount of Mesna to a patient with lymphoma, ovarian cancer, colorectal cancer or gastric cancer. Mesna inhibits the growth of several human tumor cell lines in culture, and there are no strict relationships between the histopathological origin of the cell lines and the sensitivity of the cell lines to Mesna. […] It is further preferred that the patient be administered Mesna for a seven to ten day period. The doses may be cycled. The actual dose will be dependent on the size, type and location of the tumor as well as the overall status of the patient. It is preferred that high concentrations of Mesna be administered intravenously to achieve clamping initially, with further administration of oral doses to maintain the clamped state.
Cancer cell lines were growth inhibited when Mesna was administered on several consecutive days. Mesna has shown good activity in preventing the urotoxicity of oxazaphosphorine compound.
as §1

human LNCaP cells = test: Two-step arsenic then Mesna treatment, apoptosis and glutathione in LNCaP cells; assay type: cell-based
Experimental: Human LNCaP cells, treated with 100 uM arsenic for 2 hours then washed and re-fed with normal medium, develop an elevation in cellular glutathione levels over a 24-hour period. Since exogenous antioxidants are known to be potent inhibitors of apoptotic mechanism, it is believed that internally-produced antioxidants such as glutathione function in a similar manner. […] Although Mesna increases apoptosis alone, the low concentrations of Mesna utilized in this two-step treatment protocol increased apoptosis minimally i.e., to 11 percent from a background of 3 to 5 percent in untreated cells.
as §1

[1] = test system: metastatic and/or relapsed tumors refractory to conventional therapy; test: Clinical study of oral Mesna as single agent in refractory cancer patients; assay type: in vivo, human
Experimental: From December 1996 to March 1998 a study was performed on 14 ambulatory patients with metastatic and/or relapsed tumors refractory to conventional therapy. Eligibility criteria included histologically-confirmed advanced cancer, patients age was greater than 18 years, with a life expectancy no less than two months. The patients had not undergone major surgery within 2 weeks, or radiotherapy and/or chemotherapy within one month of the study. […] Exclusion criteria included active uncontrolled infection, pregnancy, lactation and any other co-existing medical problems severe enough to prevent full compliance with the study. Objectively measurable disease in the patients was required. All patients gave informed written consent before treatment. 600 mg/m^2 of Mesna was given by oral route four times a day, masked in orange juice for 10 consecutive days. Cycles were repeated every 15 days. No simultaneous chemotherapy and or radiotherapy and no other supportive care was given. The main objective of the study was to determine the anti-tumoral activity and toxicity of Mesna for heavily and or refractory pretreated cancer patients. […] The patients were all previously treated with between two and four different chemotherapy regimens. Mesna was administered as a single agent to all of the patients in the study. The toxic effects of Mesna and number of nodes were assessed during the first cycle of Mesna administration. […] For colorectal cancer a greater than 50% reduction of nodular lesions metastasized to liver was registered, during the second schedule of therapy. For gastric cancer a greater than 50% reduction of a subcutaneous nodule was measured during the second course of Mesna treatment.

[2] = within a few minutes after administration; cited from earlier work
[3] = even in very high dose, 1000 mg/kg; cited from earlier work
[4] = 100 uM arsenic 2 hours, washed, then medium containing 100 uM Mesna

## CCCC(=O)O [Butyrate]
cells; butyrate alone
  concentration of butyrate that induces apoptosis: greater than 3 mM
cells; in the presence of a redox clamping agent
  concentration of butyrate giving an effective kill: ≥ 0.5 mM

## O=C(O)[C@@H](S)[C@@H](S)C(=O)O [DMSA]
H4 Rat Hepatoma cells
  stress-induced upswings in antioxidant levels (glutathione, metallothionein): oppose stress-induced upswings in antioxidant levels

## O=S(=O)([O-])CCSSCCS(=O)(=O)[O-].[Na+].[Na+] [Dimesna, Disodium-2,2′-dithiobisethane sulfonate]
Human tumor cell lines
  interference with the growth inhibitory activity of Mesna: did not interfere

## O=S(=O)([O-])CCS.[Na+] [Mesna, Sodium-2-mercaptoethane sulphonate]
Human LNCaP cells; [4]
  elevation in glutathione levels: dramatically diminished
  fraction of apoptotic cells compared to arsenic alone: increased more than two-fold
Human LNCaP cells; Mesna alone at the low concentration of the two-step protocol, background 3 to 5 percent in untreated cells
  apoptosis: 11%
Human tumor cell lines
  incorporation of 3H-thymidine, proline and uridine: inhibited
Human tumor cell lines; lymphoma, ovarian, colorectal, gastric cancer lines, administered on several consecutive days
  growth of human tumor cell lines in culture: inhibits growth
[1]; 600 mg/m^2 oral four times a day, 10 days, second course
  reduction of a subcutaneous nodule, gastric cancer: greater than 50%
[1]; 600 mg/m^2 oral four times a day, 10 days, second schedule of therapy
  reduction of nodular lesions metastasized to liver, colorectal cancer: greater than 50%
[1]; lung cancer, soft tissue sarcoma, skin metastases of unknown origin, bladder cancer, melanoma, cancer of the cervix
  objective response: No objective responses
[1]; two patients, 600 mg/m^2 oral four times a day, 10 days, second and third course
  clinical response, ovarian cancer: reduced ascites and pain
[2]
  fraction of administered dose transformed into Mesna disulphide: more than 90%
H4 Rat Hepatoma cells
  stress-induced upswings in antioxidant levels (glutathione, metallothionein): oppose stress-induced upswings in antioxidant levels
[3]
  pharmacological and toxicological character: relatively inert

## [AsH3] [arsenic]
Human LNCaP cells; 100 uM arsenic for 2 hours, washed, re-fed with normal medium
  apoptosis of the cells: 28%
